# Reference: patent publication US20260373132A1, “PERK INHIBITORHC-5404 IN COMBINATION WITH ANTI-PD-1 ANTIBODY AND/OR AN ANTIANGIOGENETIC AGENT FOR USE IN THE TREATMENT OF CANCER” (HIBERCELL, INC., priority 2022, published 2026)
# Legend:
# [1] = mouse body weight / tolerability; assay type: in vivo; conditions: for body weight loss: 786-O xenografts, single agent PO, 21 days (FIG. 26)
# Procedure: (§1) Body weight and tumor volume were measured twice weekly. Tumor volume was calculated using the formula [tumor volume (mm^3)=π/6×length×width^2] and plotted as means+SEM. The percentage of tumor growth inhibition was calculated at the end of the study using the formula: […], if ΔT>0, ΔT, mean tumor volume of the drug-treated group on the observation day of the study—mean tumor volume of the drug-treated group on initial day of dosing; ΔC, mean tumor volume of the control group on the observation day of the study—mean tumor volume of the control group on initial day of dosing. Regression was calculated using the formula=100×ΔT/Tinitial, if ΔT<0. Animals with >50% regressions were partial responders. Animals with tumor volume of 0 (no measurable tumor) were considered as complete responders, and animals with <50% tumor regression and 30% growth over the baseline were considered as stable disease. Animals with tumors>30% increase over the baseline were considered progressive disease. The % change in body weight was calculated by the formula (body weight on observation day−body weight on initial day)/body weight on initial day×100%.
# 786-O RCC xenograft = 786-O RCC xenograft tumor growth; assay type: in vivo, mouse; conditions: for effect on tumor volume: single agent, efficacy arms (FIG. 28)
# Procedure: (§2) Xenograft RCC models were generated as follows: Female NOD.SCID mice (6-8 weeks of age) were injected with A498 RCC cells (5×10^6 cells/mouse), female Balb/c Nude mice (6-8 weeks old) were implanted with 786-O RCC cells (5×10^6 cells/mouse) or Caki-1 RCC cells (6×10^6 cells/mouse), female Athymic Nude-Foxn1nu mice (7-8 weeks of age) were implanted with MFE280 endometrial cells (10×10^6 cells/mouse). Cells were implanted into the flank of animals.
# (§3) Once tumor tumors reached volume of typically 150-250 mm^3, animals were randomized by tumor volume into the treatment groups of 8 or 10 animals per group. In the single animal trial with RCC PDX models, only one animal per group was enrolled.
# as §1
# [2] = tested on: tumor vasculature of 786-O xenografts; assay: IHC of tumor vasculature in 786-O xenografts; assay type: in vivo, mouse
# Procedure: (§4) Formalin-fixed paraffin-embedded samples were sectioned at 5 μm thickness and mounted on Superfrost Plus microscope slides (Fisher Scientific). All immunohistochemical (IHC) staining was performed on Bond Rx auto-stainer (Leica Biosystems) using the conventional TSA-amplified detection system. Primary antibodies used were as follows: α-CD31 (Abcam #ab182981), α-smooth muscle actin (SMA; Abcam #ab124964), α-Meca32 (Novus Biologicals #NB100-77668). TSA-conjugated Alexa488 and Alexa647 fluorophores from Invitrogen (#B40953 and #B40958) were used at 1:500 dilution. Slides were counterstained with DAPI and cover slipped using Mowiol antifade mounting media (Sigma #D2522).
# (§5) Slides were imaged with Aperio Versa 200 (Leica Biosystems) whole-slide scanner using 10×/0.32NA objective, and the data were analyzed using custom-written macros in ImageJ/FIJI (NIH). Briefly, 150 μm of outer edges of the tumor sections were eliminated from the analysis. Gaussian-blurred DAPI channel was used to measure the area of the tissue. Scans of […] were processed with median filter to remove noise, then positive areas were measured with appropriate threshold levels. % positive area for each marker was calculated. CD31-SMA double positive areas were measured via image calculation of the binary images. One-way ANOVA and pair-wise comparisons were performed on the data using Prism GraphPad.
# PERK is an adaptive stress response that links hypoxia and nutrient deprivation with proangiogenic signaling. The effect of HC-5404 on tumor vasculature when administered in combination with antiangiogenic VEGFR-TKIs was investigated.
# As immature blood vessels mature, they develop a mural layer of cells that express smooth muscle actin (SMA), which encircles and stabilizes the maturing vessel. Co-staining for both CD31 and SMA was conducted to determine whether treatments were affecting mature or immature tumor blood vessels.
# This example investigated the inhibition the effect of cabozantinib on the formation of new tumor vasculature and on pericytes following procedures analogous to those described above.
# pPERK in 786-O tumors = assay: pPERK in 786-O tumor xenografts; assay type: in vivo, mouse; conditions: for pPERK accumulation in 786-O tumors: PD arm, 7 days of dosing, single agent; for pPERK levels in 786-O tumors: single agent PO, several dose levels, 21 days (FIG. 26)
# [3] = tested on: MFE280 endometrial cancer model; assay: MFE280 endometrial xenograft tumor growth; assay type: in vivo, mouse; conditions: single agent: HC-5404 30 mg/kg PO BID or lenvatinib 10 mg/kg QD (FIG. 77)
# Procedure: as §2, §3
# (§6) Body weight and tumor volume were measured twice weekly. Tumor volume was calculated using the formula [tumor volume (mm^3)=π/6×length×width^2] and plotted as means+SEM. The percentage of tumor growth inhibition was calculated at the end of the study using the formula: 100−[1−(ΔT/ΔC)], if ΔT>0, ΔT, mean tumor volume of the drug-treated group on the observation day of the study—mean tumor volume of the drug-treated group on initial day of dosing; ΔC, mean tumor volume of the control group on the observation day of the study—mean tumor volume of the control group on initial day of dosing. Regression was calculated using the formula=100×ΔT/Tinitial, if ΔT<0. […]
# [4] = tested on: RCC patient-derived xenografts (PDXs); assay: single-animal study in RCC PDX models; assay type: in vivo, mouse
# Excerpt: For patient derived xenograft model generation, small pieces of neuroendocrine pancreatic cancers were implanted into female NSG mice (6-8 weeks of age), fragments of Huprime gastric cancers were implanted into female Balb/c nude mice and for a single animal trial in RCC PDX models, tumor fragments from selected RCC PDX models were implanted into mice unilaterally.
# as §3
# as §6, with “ΔT<0. Animals with >50% regressions were partial responders.” for “ΔT<0.”
# [5] = tested on: tumor vasculature and pericyte cells of 786-O xenografts progressed on axitinib; assay: IHC of tumor vasculature and pericytes in 786-O xenografts that progressed on axitinib; assay type: in vivo, mouse
# Procedure: as §4, §5
# After 14 days of treatments, 77 mice bearing the largest tumors were rerandomized into four PD arms (n=8), four efficacy arms (n=10), and 5 tumors sampled on day of rerandomization as a baseline. The remaining animals were removed from study.
# Caki-1 RCC xenograft = Caki-1 RCC xenograft tumor growth; assay type: in vivo, mouse; conditions: HC-5404 or sunitinib monotherapy, compared with A498 (FIG. 32)
# Procedure: as §2, §3, §1
# A498 RCC xenograft = A498 RCC xenograft tumor growth; assay type: in vivo, mouse; conditions: single agent: HC-5404 30 mg/kg PO BID or sunitinib 20 mg/kg PO QD (FIG. 31)
# Procedure: as §2, §3, §1
# [6] = 7 days after rerandomization (FIG. 92)
compound,measurement,setting,value
COc1cc2nccc(Oc3ccc(NC(=O)C4(C(=O)Nc5ccc(F)cc5)CC4)cc3)c2cc1OC [cabozantinib],body weight loss,[1],no treatment-associated body weight loss was observed
same,mouse body weight,"[1]; 786-O, HC-5404 3, 10, 30 mg/kg BID and/or cabozantinib 30 mg/kg QD (FIG. 53)",did not affect mouse body weight
same,partial responses,786-O RCC xenograft; cabozantinib 30 mg/kg QD alone or with HC-5404 10 or 30 mg/kg BID (each group),2/8
same,tumor response,786-O RCC xenograft; cabozantinib 30 mg/kg QD monotherapy (FIG. 52),tumor stasis
same,effect on tumor volume,786-O RCC xenograft,modest effects on tumor volume
same,immature vasculature (CD31+SMA− cells),"[2]; cabozantinib study (FIG. 54, 55)",near complete loss of immature vasculature
same,pPERK accumulation in 786-O tumors,pPERK in 786-O tumors,induced pPERK accumulation
same,pPERK levels in 786-O tumors,pPERK in 786-O tumors,dose-dependent increases in pPERK
COc1cc2nccc(Oc3ccc(NC(=O)NC4CC4)c(Cl)c3)c2cc1C(N)=O [lenvatinib],body weight loss,[1],no treatment-associated body weight loss was observed
same,effect on tumor volume,786-O RCC xenograft,modest effects on tumor volume
same,TGI %,[3],~ 85%
same,pPERK accumulation in 786-O tumors,pPERK in 786-O tumors,induced pPERK accumulation
same,pPERK levels in 786-O tumors,pPERK in 786-O tumors,dose-dependent increases in pPERK
CNC(=O)c1ccccc1Sc1ccc2c(/C=C/c3ccccn3)n[nH]c2c1 [axitinib],body weight loss,[1],no treatment-associated body weight loss was observed
same,effect on tumor volume,786-O RCC xenograft,modest effects on tumor volume
same,partial responses (PRs) among models,"[4]; 15 RCC PDX models, 28 days, PR: regression >50% vs baseline (FIG. 35)",1/15
same,sensitivity of VHLwt models to axitinib,[4]; three of the VHLwt models,decreased sensitivity to axitinib
same,proportion of cells expressing CD31,[5]; [6],decreased by axitinib
same,proportion of smooth muscle actin (SMA),[5]; [6],decreased
same,number of Meca32+ and CD31+ cells,"[5]; FIG. 41, 42",decreased
same,MCAM+ cells,"[5]; FIG. 43, 44",decreased by axitinib
same,proportion of Meca32 expressing vascular endothelial cells,"[2]; axitinib study (FIG. 38, 39)",decreased
same,immature CD31+SMA− vessels,[2]; axitinib study (FIG. 39),decreased
same,mature CD31+SMA+ cells,[2]; axitinib study (FIG. 39),did not affect
same,pPERK accumulation in 786-O tumors,pPERK in 786-O tumors,induced pPERK accumulation
same,pPERK levels in 786-O tumors,pPERK in 786-O tumors,dose-dependent increases in pPERK
"CCN(CC)CCNC(=O)c1c(C)[nH]c(/C=C2\C(=O)Nc3ccc(F)cc32)c1C [sunitinib, reference compound]",sensitivity of Caki-1 to monotherapy,Caki-1 RCC xenograft,far less sensitive
same,inhibition of 786-O growth,786-O RCC xenograft; sunitinib single agent 40 mg/kg QD (FIG. 28),effective inhibitor of 786-O growth
same,TGI,A498 RCC xenograft,80%
same,pPERK accumulation in 786-O tumors,pPERK in 786-O tumors,induced pPERK accumulation
same,pPERK in 786-O xenografts,pPERK in 786-O tumors; sunitinib single agent,increased pPERK
same,time course of pPERK increase in 786-O xenografts,pPERK in 786-O tumors; sunitinib single agent,increased over time
